IC50 data for five sequences are collected here from article PMC3225262, “PeptX: Using Genetic Algorithms to optimize peptides for MHC binding” (BMC Bioinformatics, 2011).

Where no end group is shown, it is not given here.

This assay deals with HLA-A*02:01 (Homo sapiens, UniProt P04439, D140Y/D185E/D98H/E176V/E277Q/G131W/G231S/I119V/I121R/I166T/I218V/L300P/L318F/N151K/N90K/P208A/P217A/Q86G/Q94H/R138H/R169H/T345S). As to the kind of experiment: experimental peptide/MHC binding assay of the consensus peptides. As to conditions: consensus peptides optimized for HLA-A*02:01; values below 0.5 nM are beyond the range of sensitivity of the assay; tested by co-operation partner (J. Sidney); read-out: experimental peptide/MHC binding affinity expressed as IC50. The source says: Since a validation on the basis of existing public experimental data was not possible we were able to find a co-operation partner who tested our consensus peptides for experimental peptide/MHC binding affinity.
The authors thank J. Sidney for testing the IC50 binding affinities of the consensus peptides.

Consider WWWFFWYVW [WWWFFWYVW], for which the IC50 was found to be 45 nM. In the case of YMMEWMWYV [YMMEWMWYV] it was less than 0.5 nM; in that of YLAEGLASL [YLAEGLASL], 1.3 nM. Under FLWEVTPTV [FLWEVTPTV] stands 1.1 nM; under MLWTMVFTV [MLWTMVFTV], less than 0.5 nM.
